According to patent US20140234988A1, “Methods for Diagnosing and Treating Medical Conditions Associated With Oxidative Stress” (priority 2011, published 2014):

How the values were obtained:
[1] = target: human serum albumin, binding site II (plasma of patients with cirrhosis) (Homo sapiens, UniProt P02768); conditions: cirrhotic patients vs controls
Description: (§1) In blood samples derived from the study population (9 consecutive patients with acute-on-chronic liver failure (ACLF) being evaluated for extracorporeal liver support and 20 patients with cirrhosis who were candidates for liver transplantation), albumin was fractionated by HPLC as previously described (Kawai, K. et al. (2001) Tokai J. Exp. Clin. Med. 26, 93-99) resulting in three protein fractions representing cysteine 34 as free sulfhydryl form (HMA), as mixed disulfide (HNA1), or in a higher oxidation state (HNA2).
(§2) Plasma albumin concentrations were determined by using an automatic clinical chemical analyser (EuroLyser, Eurolyser Diagnostica, Salzburg, Austria).
(§3) Serum samples were diluted with PBS and adjusted to an albumin concentration of 40 μM. Based on the 40 μM sample, a dilution series with final concentrations of 20 μM, 10 μM, and 5 μM albumin (in PBS) was made. Each of these samples (250 μl) was mixed with the same volume of 10 μM DS (Sigma-Aldrich, Vienna, Austria) solution. […] DS was detected by means of determining fluorescence at 482/350 nm using a Hitachi F1050 (Merck) detector. Quantificaton via the peak heights was done using the EZ Chrom Elite chromatography software (VWR, Vienna, Austria). From the straight line obtained by the graph of ln (free DS) vs. albumin, the albumin concentration binding half of the ligand was calculated and given as IC50 (μmol/l).

[2] = target: human serum albumin, binding site II (plasma of patients with acute-on-chronic liver failure, ACLF) (Homo sapiens, UniProt P02768); conditions: ACLF group vs controls
Description: as §1, §2, §3

[3] = target: human serum albumin, binding site II (plasma of patients with sepsis) (Homo sapiens, UniProt P02768); conditions: septic group vs controls
human serum albumin, binding site II (plasma of patients with sepsis), sequence (P02768 25-609): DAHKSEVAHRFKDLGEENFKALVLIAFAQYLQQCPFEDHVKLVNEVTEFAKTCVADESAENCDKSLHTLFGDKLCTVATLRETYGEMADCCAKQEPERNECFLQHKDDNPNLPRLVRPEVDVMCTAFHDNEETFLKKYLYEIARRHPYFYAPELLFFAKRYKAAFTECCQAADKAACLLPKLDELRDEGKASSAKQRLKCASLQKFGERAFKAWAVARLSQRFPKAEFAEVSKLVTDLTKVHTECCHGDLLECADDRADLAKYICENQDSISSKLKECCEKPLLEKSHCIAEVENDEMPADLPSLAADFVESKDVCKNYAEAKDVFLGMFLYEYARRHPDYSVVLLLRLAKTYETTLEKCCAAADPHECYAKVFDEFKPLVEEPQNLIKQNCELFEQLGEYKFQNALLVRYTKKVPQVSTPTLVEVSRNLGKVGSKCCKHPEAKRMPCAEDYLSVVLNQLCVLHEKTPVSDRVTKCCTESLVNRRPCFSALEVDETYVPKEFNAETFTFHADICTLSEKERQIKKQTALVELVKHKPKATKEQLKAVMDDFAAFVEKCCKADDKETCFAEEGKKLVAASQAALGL
Protocol: as §2
Serum samples were diluted with PBS and adjusted to an albumin concentration of 40 μM. Based on the 40 μM sample, a dilution series with final concentrations of 20 μM, 10 μM, and 5 μM albumin (in PBS) was made. Each of these samples (250 μl) was mixed with the same volume of 10 μM DS (Sigma-Aldrich, Vienna, Austria) solution. Unbound DS molecules were separated from the plasma components via ultrafiltration (Ultrafree-MC reg. Cellulose 30K, Millipore, Vienna, Austria) at 500 g for 10 min at room temperature. 150 μl of the flow through were put into HPLC vials. As a control, 10 μM DS was diluted with the same volume of Millipore water and ultrafiltered as described. For an external standard curve, a dilution series of DS with Millipore water (10 μM, 5 μM, 2.5 μM, and 1.25 μM) was prepared. 20 μl of the filtrate were then injected to the HPLC system. […] DS was detected by means of determining fluorescence at 482/350 nm using a Hitachi F1050 (Merck) detector. Quantificaton via the peak heights was done using the EZ Chrom Elite chromatography software (VWR, Vienna, Austria). From the straight line obtained by the graph of ln (free DS) vs. albumin, the albumin concentration binding half of the ligand was calculated and given as IC50 (μmol/l). […]

human serum albumin, binding site II (plasma of patients with cirrhosis), sequence (P02768 25-609): as above
human serum albumin, binding site II (plasma of patients with acute-on-chronic liver failure, ACLF), sequence (P02768 25-609): as above

**Q.** Which “DS binding, compared with controls” value [1] does the source give for `CN(C)c1cccc2c(S(=O)(=O)N(C)CC(=O)O)cccc12` [dansylsarcosine] here?
**A.** no difference in DS binding between controls and cirrhotic patients

**Q.** And the “IC50-values, compared with controls” value [2]?
**A.** IC50-values were increased in the septic and ACLF group

**Q.** And the “IC50-values, compared with controls” value [3]?
**A.** IC50-values were increased in the septic and ACLF group
